In US20080009418A1, “Selective Inhibitors” (Alchemia LTD., priority 2004, published 2008):

Assays:
Human δ-opioid (DOP) = target: T1, Human δ-opioid (DOP) (Homo sapiens, UniProt P41143); experiment: Radioligand binding, human δ-opioid (DOP) membranes, FlashPlate, [3H]-Bremazocine; settings: compound at 10 μM; for A1: inhibition of radioligand binding: [3H]-Bremazocine; for A1 radioligand binding inhibition: human δ-opioid (DOP) membranes
T1 construct: purchased Perkin Elmer Biosignal
How it was run: (§1)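 Cloned human receptor membranes were coated onto FlashPlate wells and incubated with radioligand and compound (added from a 0.5 mM DMSO daughter plate) for 1 hour at room temperature in the dark. Scintillation counting gave percent inhibition, with DMSO defining total and reference ligand defining non-specific binding.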

Human κ-Opioid (KOP) = target: T2, Human κ-Opioid (KOP) (Homo sapiens, UniProt P41145); experiment: Radioligand binding, human κ-opioid (KOP) membranes, filtration, [3H]-Diprenorphine; settings: compound at 10 μM; for A2: inhibition of radioligand binding: [3H]-Diprenorphine; for A2 radioligand binding inhibition: human κ-opioid (KOP) membranes
T2 construct: purchased Perkin Elmer Biosignal
T2 sequence (P41145 whole entry): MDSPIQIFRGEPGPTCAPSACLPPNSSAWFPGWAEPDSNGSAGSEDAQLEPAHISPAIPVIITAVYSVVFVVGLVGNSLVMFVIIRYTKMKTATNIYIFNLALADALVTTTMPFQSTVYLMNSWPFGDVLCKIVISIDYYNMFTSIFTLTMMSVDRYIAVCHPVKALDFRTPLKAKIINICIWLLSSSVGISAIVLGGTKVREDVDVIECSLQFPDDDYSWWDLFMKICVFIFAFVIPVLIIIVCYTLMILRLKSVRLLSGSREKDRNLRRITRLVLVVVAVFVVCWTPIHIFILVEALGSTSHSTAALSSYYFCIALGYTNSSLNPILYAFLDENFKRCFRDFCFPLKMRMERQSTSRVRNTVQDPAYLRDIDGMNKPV
How it was run: (§2)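 Membranes from cloned human receptors were incubated with compound and radioligand for 1 hour at room temperature. Bound ligand was collected on 0.3% PEI-soaked filters, washed with cold 50 mM Tris-HCl pH 7.4, and counted by scintillation. Percent inhibition was computed against DMSO totals and reference-ligand nonspecific wells.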

Human Melanocortin (MC3) = target: T3, Human Melanocortin (MC3) (Homo sapiens, UniProt P41968); experiment: Radioligand binding, human melanocortin MC3 membranes, FlashPlate, [125I]-NDP-αMSH; settings: compound at 10 μM; for A3: inhibition of radioligand binding: [125I]-NDP-αMSH; for A3 radioligand binding inhibition: human melanocortin MC3 membranes
T3 construct: purchased Perkin Elmer Biosignal
T3 sequence (P41968 whole entry): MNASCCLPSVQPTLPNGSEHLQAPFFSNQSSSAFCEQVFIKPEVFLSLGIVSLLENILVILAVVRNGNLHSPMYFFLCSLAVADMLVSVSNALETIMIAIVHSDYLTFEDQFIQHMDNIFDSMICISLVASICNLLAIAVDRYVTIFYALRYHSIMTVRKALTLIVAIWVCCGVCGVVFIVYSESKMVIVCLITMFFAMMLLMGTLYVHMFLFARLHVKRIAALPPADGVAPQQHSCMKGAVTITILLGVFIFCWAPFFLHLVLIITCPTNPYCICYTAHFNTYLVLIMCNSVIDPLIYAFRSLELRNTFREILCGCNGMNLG
How it was run: as §1

Human Melanocortin (MC4) = target: T4, Human Melanocortin (MC4) (Homo sapiens, UniProt P32245); experiment: Radioligand binding, human melanocortin MC4 membranes, FlashPlate, [125I]-NDP-αMSH; settings: compound at 10 μM; for A4: inhibition of radioligand binding: [125I]-NDP-αMSH; for A4 radioligand binding inhibition: human melanocortin MC4 membranes
T4 construct: purchased Perkin Elmer Biosignal
T4 sequence (P32245 whole entry): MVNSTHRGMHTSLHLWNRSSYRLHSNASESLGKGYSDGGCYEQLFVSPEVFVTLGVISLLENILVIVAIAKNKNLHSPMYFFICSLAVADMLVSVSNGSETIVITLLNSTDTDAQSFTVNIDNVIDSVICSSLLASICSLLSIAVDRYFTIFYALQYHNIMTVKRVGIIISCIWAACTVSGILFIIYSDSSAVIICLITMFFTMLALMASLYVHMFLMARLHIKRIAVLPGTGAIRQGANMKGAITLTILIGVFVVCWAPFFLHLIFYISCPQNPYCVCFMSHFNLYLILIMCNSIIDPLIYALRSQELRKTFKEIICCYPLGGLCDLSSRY
How it was run: as §1

Human melanocortin (MC5) = target: T5, Human melanocortin (MC5) (Homo sapiens, UniProt P33032); experiment: Radioligand binding, human melanocortin MC5 membranes, FlashPlate, [125I]-NDP-αMSH; settings: compound at 10 μM; for A5: inhibition of radioligand binding: [125I]-NDP-αMSH; for A5 radioligand binding inhibition: human melanocortin MC5 membranes
T5 construct: purchased Perkin Elmer Biosignal
T5 sequence (P33032 whole entry): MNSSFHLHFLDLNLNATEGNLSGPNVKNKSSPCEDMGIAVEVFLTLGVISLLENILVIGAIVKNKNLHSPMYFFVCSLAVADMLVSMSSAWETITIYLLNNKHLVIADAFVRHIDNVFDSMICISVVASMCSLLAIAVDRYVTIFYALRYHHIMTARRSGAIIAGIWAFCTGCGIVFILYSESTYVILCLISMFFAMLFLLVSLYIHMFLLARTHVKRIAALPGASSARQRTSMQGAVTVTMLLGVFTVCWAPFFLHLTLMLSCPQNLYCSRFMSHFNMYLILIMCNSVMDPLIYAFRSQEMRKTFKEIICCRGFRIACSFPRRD
How it was run: as §1

[1] = target: T6, Human melanin-concentrating hormone (MCH1) (Homo sapiens, UniProt Q99705); experiment: Radioligand binding, human melanin-concentrating hormone MCH1 membranes, FlashPlate, [125I]-S36057; settings: compound at 10 μM; for A6 radioligand binding inhibition: human MCH1 membranes
T6 construct: purchased Perkin Elmer Biosignal
T6 sequence (Q99705 whole entry): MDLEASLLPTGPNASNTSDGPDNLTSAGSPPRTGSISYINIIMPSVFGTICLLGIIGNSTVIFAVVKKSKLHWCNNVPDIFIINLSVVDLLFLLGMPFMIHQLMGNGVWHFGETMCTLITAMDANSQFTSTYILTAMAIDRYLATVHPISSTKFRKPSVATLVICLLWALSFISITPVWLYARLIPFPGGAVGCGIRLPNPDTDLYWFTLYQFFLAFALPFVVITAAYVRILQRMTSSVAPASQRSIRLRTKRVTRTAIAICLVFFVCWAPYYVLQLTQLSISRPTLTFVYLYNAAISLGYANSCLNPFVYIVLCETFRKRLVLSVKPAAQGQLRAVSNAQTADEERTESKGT
How it was run: as §1

Human μ-opioid (MOP) = target: T7, Human μ-opioid (MOP) (Homo sapiens, UniProt P35372); experiment: Radioligand binding, human μ-opioid (MOP) membranes, FlashPlate, [3H]-Naloxone; settings: compound at 10 μM; for A7: inhibition of radioligand binding: [3H]-Naloxone; for A7 radioligand binding inhibition: human μ-opioid (MOP) membranes
T7 construct: purchased Perkin Elmer Biosignal
T7 sequence (P35372 whole entry): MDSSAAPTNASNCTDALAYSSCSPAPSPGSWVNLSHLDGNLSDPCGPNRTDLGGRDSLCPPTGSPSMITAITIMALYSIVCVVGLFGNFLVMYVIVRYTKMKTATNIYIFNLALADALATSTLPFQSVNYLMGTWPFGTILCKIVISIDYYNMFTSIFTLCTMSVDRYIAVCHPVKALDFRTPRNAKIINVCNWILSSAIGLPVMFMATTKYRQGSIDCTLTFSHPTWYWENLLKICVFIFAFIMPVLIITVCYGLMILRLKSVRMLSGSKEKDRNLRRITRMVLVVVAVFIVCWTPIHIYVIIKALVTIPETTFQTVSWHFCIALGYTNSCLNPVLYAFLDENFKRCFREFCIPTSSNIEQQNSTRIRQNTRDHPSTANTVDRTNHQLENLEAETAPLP
How it was run: as §1

Human neurokinin (NK1) = target: T8, Human neurokinin (NK1) (Homo sapiens, UniProt P25103); experiment: Radioligand binding, human neurokinin NK1 membranes, filtration, [125I]-Substance P; settings: compound at 10 μM; for A8: inhibition of radioligand binding: [125I]-Substance P; for A8 radioligand binding inhibition: human neurokinin NK1 membranes
T8 construct: purchased Perkin Elmer Biosignal
T8 sequence (P25103 whole entry): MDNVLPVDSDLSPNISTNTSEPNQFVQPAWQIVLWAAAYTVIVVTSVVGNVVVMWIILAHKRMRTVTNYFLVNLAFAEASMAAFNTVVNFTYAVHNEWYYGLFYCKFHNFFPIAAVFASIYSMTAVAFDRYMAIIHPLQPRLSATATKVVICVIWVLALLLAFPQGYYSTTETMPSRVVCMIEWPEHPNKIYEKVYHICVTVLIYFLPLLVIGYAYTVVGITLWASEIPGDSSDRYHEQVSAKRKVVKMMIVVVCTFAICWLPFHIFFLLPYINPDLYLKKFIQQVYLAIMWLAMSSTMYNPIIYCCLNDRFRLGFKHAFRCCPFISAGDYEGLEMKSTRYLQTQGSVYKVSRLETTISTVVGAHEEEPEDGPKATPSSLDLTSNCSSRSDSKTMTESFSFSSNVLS
How it was run: as §2

[2] = target: T9, Human neuropeptide Y (NPY-Y1) (Homo sapiens, UniProt P25929); experiment: Radioligand binding, human neuropeptide Y NPY-Y1 membranes, FlashPlate, [125I]-PYY; settings: compound at 10 μM; for A9: inhibition of radioligand binding: [125I]-PYY
T9 construct: purchased Perkin Elmer Biosignal
T9 sequence (P25929 1-384): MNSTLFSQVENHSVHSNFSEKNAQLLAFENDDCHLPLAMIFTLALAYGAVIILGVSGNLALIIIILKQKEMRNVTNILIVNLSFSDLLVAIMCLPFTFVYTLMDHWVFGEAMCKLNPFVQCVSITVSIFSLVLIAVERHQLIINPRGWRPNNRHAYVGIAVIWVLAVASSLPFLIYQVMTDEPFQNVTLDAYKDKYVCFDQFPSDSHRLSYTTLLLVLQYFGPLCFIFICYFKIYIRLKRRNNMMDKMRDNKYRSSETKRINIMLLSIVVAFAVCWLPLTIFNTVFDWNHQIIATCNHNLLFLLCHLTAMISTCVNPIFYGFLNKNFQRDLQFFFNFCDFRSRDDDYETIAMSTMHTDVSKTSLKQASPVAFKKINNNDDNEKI
How it was run: as §1

Human opioid (ORL1) = target: T10, Human opioid (ORL1) (Homo sapiens, UniProt P41146); experiment: Radioligand binding, human opioid ORL1 membranes, FlashPlate, [125I]-Nociceptin; settings: compound at 10 μM; for A10: inhibition of radioligand binding: [125I]-Nociceptin
T10 construct: purchased Perkin Elmer Biosignal
T10 sequence (P41146 whole entry): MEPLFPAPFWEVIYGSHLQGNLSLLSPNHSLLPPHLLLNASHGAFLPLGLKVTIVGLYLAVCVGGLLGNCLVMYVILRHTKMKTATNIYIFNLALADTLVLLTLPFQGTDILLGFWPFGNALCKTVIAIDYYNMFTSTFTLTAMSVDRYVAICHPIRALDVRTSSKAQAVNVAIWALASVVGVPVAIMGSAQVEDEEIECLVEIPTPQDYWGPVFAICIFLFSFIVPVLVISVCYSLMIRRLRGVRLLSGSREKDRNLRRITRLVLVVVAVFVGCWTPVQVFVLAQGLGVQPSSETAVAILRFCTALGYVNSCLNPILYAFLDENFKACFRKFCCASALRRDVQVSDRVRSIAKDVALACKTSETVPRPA
How it was run: as §1

Mouse urotensin (mUR2) = target: T11, Mouse urotensin (mUR2) (Mus musculus, UniProt Q8VIH9); experiment: Radioligand binding, mouse urotensin mUR2 membranes, FlashPlate, [125I]-Urotensin II; settings: compound at 10 μM; for A11: inhibition of radioligand binding: [125I]-Urotensin II; for A11 radioligand binding inhibition: mouse urotensin mUR2 membranes
T11 construct: purchased Perkin Elmer Biosignal
T11 sequence (Q8VIH9 1-385): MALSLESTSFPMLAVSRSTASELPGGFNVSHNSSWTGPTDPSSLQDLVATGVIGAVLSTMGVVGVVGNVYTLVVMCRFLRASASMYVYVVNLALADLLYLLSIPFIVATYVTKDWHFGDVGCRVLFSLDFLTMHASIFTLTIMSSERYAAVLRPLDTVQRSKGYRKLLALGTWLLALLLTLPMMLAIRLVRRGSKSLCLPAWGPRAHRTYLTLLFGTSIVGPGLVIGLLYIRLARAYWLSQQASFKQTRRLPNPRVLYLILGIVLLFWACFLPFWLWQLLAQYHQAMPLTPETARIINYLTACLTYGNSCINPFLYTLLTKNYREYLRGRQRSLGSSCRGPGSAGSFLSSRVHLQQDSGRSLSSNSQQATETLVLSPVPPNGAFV
How it was run: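 Cloned mouse urotensin (mUR2) receptor membranes from Perkin Elmer Biosignal were immobilized in FlashPlate microplates using a proprietary coating. Each well got 19.5 μl buffer, then 0.5 μl of DMSO, reference ligand, or compound. Adding 5 μl of [125I]-Urotensin II, diluted to 5× final concentration in binding buffer, started binding. Plates were sealed with TopSeal-A and incubated 1 hour at room temperature in the dark. Wells were counted for 30 seconds each on a TopCount after a 60-second delay, and percentage inhibition was calculated.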

T1 sequence (P41143 whole entry): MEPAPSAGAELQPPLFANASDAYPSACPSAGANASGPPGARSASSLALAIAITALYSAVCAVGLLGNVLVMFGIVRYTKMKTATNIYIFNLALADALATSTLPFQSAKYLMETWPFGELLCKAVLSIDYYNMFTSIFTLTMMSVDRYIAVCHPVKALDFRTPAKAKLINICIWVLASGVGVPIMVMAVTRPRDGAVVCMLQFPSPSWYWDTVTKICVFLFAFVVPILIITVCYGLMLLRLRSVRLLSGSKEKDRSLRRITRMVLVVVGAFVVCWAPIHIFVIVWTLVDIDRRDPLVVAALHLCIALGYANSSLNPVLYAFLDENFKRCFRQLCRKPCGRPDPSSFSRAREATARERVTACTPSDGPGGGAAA

| Structure (SMILES) | A1 radioligand binding inhibition (Human δ-opioid (DOP)) | A2 radioligand binding inhibition (Human κ-Opioid (KOP)) | A3 radioligand binding inhibition (Human Melanocortin (MC3)) | A4 radioligand binding inhibition (Human Melanocortin (MC4)) | A5 radioligand binding inhibition (Human melanocortin (MC5)) | A6 radioligand binding inhibition [1] | A7 radioligand binding inhibition (Human μ-opioid (MOP)) | A8 radioligand binding inhibition (Human neurokinin (NK1)) | A9 radioligand binding inhibition ([2]; human NPY-Y1 membranes) | A10 radioligand binding inhibition (Human opioid (ORL1); human ORL1 membranes) | A11 radioligand binding inhibition (Mouse urotensin (mUR2)) | further results |
| --- | --- | --- | --- | --- | --- | --- | --- | --- | --- | --- | --- | --- |
| NCCC(=O)NC1C(OCc2ccc(Cl)cc2)OC(COCc2ccc3ccccc3c2)C(O)C1OCc1ccc(Cl)cc1 (single isomer, unassigned) [compound 472] |  |  |  |  |  |  |  |  |  |  |  | A1: inhibition of radioligand binding (Human δ-opioid (DOP); human DOP membranes): − (“−” indicates less than 50% inhibition at 10 μM); A2: inhibition of radioligand binding (Human κ-Opioid (KOP); human KOP membranes): − (“−” indicates less than 50% inhibition at 10 μM); A3: inhibition of radioligand binding (Human Melanocortin (MC3); human MC3 membranes): + (“+” indicates greater than 50% inhibition at 10 μM); A4: inhibition of radioligand binding (Human Melanocortin (MC4); human MC4 membranes, 10 µM): + (“+” indicates greater than 50% inhibition at 10 μM); A5: inhibition of radioligand binding (Human melanocortin (MC5); human MC5 membranes): + (“+” indicates greater than 50% inhibition at 10 μM); A6: inhibition of radioligand binding ([1]; [125I]-S36057, human MCH1 membranes, 10 µM): + (“+” indicates greater than 50% inhibition at 10 μM); A7: inhibition of radioligand binding (Human μ-opioid (MOP); human MOP membranes): − (“−” indicates less than 50% inhibition at 10 μM); A8: inhibition of radioligand binding (Human neurokinin (NK1); human NK1 membranes): + (“+” indicates greater than 50% inhibition at 10 μM); A9: inhibition of radioligand binding ([2]; human NPY-Y1 membranes): − (“−” indicates less than 50% inhibition at 10 μM); A10: inhibition of radioligand binding (Human opioid (ORL1); human ORL1 membranes): − (“−” indicates less than 50% inhibition at 10 μM); A11: inhibition of radioligand binding (Mouse urotensin (mUR2); mouse mUR2 membranes): − (“−” indicates less than 50% inhibition at 10 μM) |
| COCC1OC(OCc2ccccc2)C(NC(=O)CNC(=N)N)C(OCc2ccc3ccccc3c2)C1O (stereo not shown) [compound 189] |  |  |  |  |  |  |  |  |  |  |  | A1: inhibition of radioligand binding (Human δ-opioid (DOP); FlashPlate): − (“−” indicates less than 50% inhibition at 10 μM); A2: inhibition of radioligand binding (Human κ-Opioid (KOP); filtration): − (“−” indicates less than 50% inhibition at 10 μM); A3: inhibition of radioligand binding (Human Melanocortin (MC3); FlashPlate): + (“+” indicates greater than 50% inhibition at 10 μM); A4: inhibition of radioligand binding (Human Melanocortin (MC4); FlashPlate): + (“+” indicates greater than 50% inhibition at 10 μM); A5: inhibition of radioligand binding (Human melanocortin (MC5); FlashPlate): + (“+” indicates greater than 50% inhibition at 10 μM); A6: inhibition of radioligand binding ([1]; [125I]-S36057, FlashPlate): + (“+” indicates greater than 50% inhibition at 10 μM); A7: inhibition of radioligand binding (Human μ-opioid (MOP); FlashPlate): − (“−” indicates less than 50% inhibition at 10 μM); A8: inhibition of radioligand binding (Human neurokinin (NK1); filtration): + (“+” indicates greater than 50% inhibition at 10 μM); A9: inhibition of radioligand binding ([2]; FlashPlate): − (“−” indicates less than 50% inhibition at 10 μM); A10: inhibition of radioligand binding (Human opioid (ORL1); FlashPlate): − (“−” indicates less than 50% inhibition at 10 μM); A11: inhibition of radioligand binding (Mouse urotensin (mUR2); FlashPlate): − (“−” indicates less than 50% inhibition at 10 μM) |
| COC[C@H]1OC(OCc2ccc3ccccc3c2)[C@H](NC(=O)CCNC(=N)N)[C@@H](OCc2ccc3ccccc3c2)[C@@H]1O (stereo partly shown) [compound 18] | − (“−” indicates less than 50% inhibition at 10 μM) | − (“−” indicates less than 50% inhibition at 10 μM) | − (“−” indicates less than 50% inhibition at 10 μM) | − (“−” indicates less than 50% inhibition at 10 μM) | + (“+” indicates greater than 50% inhibition at 10 μM) | + (“+” indicates greater than 50% inhibition at 10 μM) | + (“+” indicates greater than 50% inhibition at 10 μM) | + (“+” indicates greater than 50% inhibition at 10 μM) | − (“−” indicates less than 50% inhibition at 10 μM) | − (“−” indicates less than 50% inhibition at 10 μM) | − (“−” indicates less than 50% inhibition at 10 μM) |  |
| COC[C@H]1OC(OCc2ccc(-c3ccccc3)cc2)[C@H](NC(=O)CCNC(=N)N)[C@@H](OCc2ccc(Cl)cc2)[C@@H]1O (stereo partly shown) [compound 11] | + (“+” indicates greater than 50% inhibition at 10 μM) | + (“+” indicates greater than 50% inhibition at 10 μM) | − (“−” indicates less than 50% inhibition at 10 μM) | + (“+” indicates greater than 50% inhibition at 10 μM) | + (“+” indicates greater than 50% inhibition at 10 μM) | + (“+” indicates greater than 50% inhibition at 10 μM) | + (“+” indicates greater than 50% inhibition at 10 μM) | + (“+” indicates greater than 50% inhibition at 10 μM) | − (“−” indicates less than 50% inhibition at 10 μM) | − (“−” indicates less than 50% inhibition at 10 μM) | − (“−” indicates less than 50% inhibition at 10 μM) |  |
| COC[C@H]1OC(OCc2ccc3ccccc3c2)[C@H](NC(=O)CCNC(=N)N)[C@@H](OCc2ccc(-c3ccccc3)cc2)[C@@H]1O (stereo partly shown) [compound 16] | + (“+” indicates greater than 50% inhibition at 10 μM) | + (“+” indicates greater than 50% inhibition at 10 μM) | + (“+” indicates greater than 50% inhibition at 10 μM) | + (“+” indicates greater than 50% inhibition at 10 μM) | + (“+” indicates greater than 50% inhibition at 10 μM) | + (“+” indicates greater than 50% inhibition at 10 μM) | + (“+” indicates greater than 50% inhibition at 10 μM) | + (“+” indicates greater than 50% inhibition at 10 μM) | − (“−” indicates less than 50% inhibition at 10 μM) | − (“−” indicates less than 50% inhibition at 10 μM) | − (“−” indicates less than 50% inhibition at 10 μM) |  |
